{
  "source": "paper PMC8344375",
  "about": "(Biochemistry, 2015)",
  "key": {"wt Cb H-NOX [1]": {"system": "wt Cb H-NOX", "format": "binding"}, "wt Tt H-NOX [2]": {"system": "wt Tt H-NOX", "format": "binding"}, "sGC": {"system": "sGC", "settings": "cited from earlier work"}, "[3]": {"system": "6c NO-heme-His complex in wt Cb H-NOX", "format": "binding, Clostridium botulinum"}, "wt Cb H-NOX [4]": {"system": "wt Cb H-NOX", "settings": "cited from earlier work"}, "wt Tt H-NOX [5]": {"system": "wt Tt H-NOX", "settings": "cited from earlier work"}},
  "note": "pKd: −log10 of the molar value. “And” between values parts separate entries of the source, which are not always exact repeats. Identical values can stand only once. Like-named read-outs stand apart in the source and are kept apart here.",
  "data": [
    {"molecule": "nitric oxide [NO]", "values": [
      {"measurement": "NO dissociation rate, fast phase", "setting": "wt Cb H-NOX [1]", "value": 0.011, "unit": "s⁻¹"},
      {"measurement": "koff (NO)", "setting": "wt Cb H-NOX [1]", "value": 0.012, "unit": "s⁻¹"},
      {"measurement": "koff of 5c NO-heme complex", "setting": "wt Cb H-NOX [1]", "value": "1.1 × 10^−3a s^−1"},
      {"measurement": "kon (NO)", "setting": "wt Cb H-NOX [1]", "value": "1.5e+08", "unit": "M⁻¹ s⁻¹"},
      {"measurement": "pKd", "setting": "wt Cb H-NOX [1]; read-out: KD (NO)", "value": 10.10},
      {"measurement": "koff (NO)", "setting": "wt Tt H-NOX [2]", "value": 0.0034, "unit": "s⁻¹"},
      {"measurement": "kon (NO)", "setting": "wt Tt H-NOX [2]", "value": "1.5e+08", "unit": "M⁻¹ s⁻¹"},
      {"measurement": "pKd", "setting": "wt Tt H-NOX [2]; read-out: KD (NO)", "value": 10.64},
      {"measurement": "koff for 5c NO-heme", "setting": "sGC", "value": 0.0006, "unit": "s⁻¹"},
      {"measurement": "koff(NO) of 6c NO-sGC complex", "setting": "sGC", "value": 27, "unit": "s⁻¹"},
      {"measurement": "pKd", "setting": "sGC; read-out: KD(NO)(6c)", "value": 7.27},
      {"measurement": "k2 (quaternary complex to 5c NO-heme)", "setting": "[3]", "value": "~ 790 s^−1"},
      {"measurement": "pKd", "setting": "[3]; read-out: KD (reaction I, NO binding to 6c NO-heme-His)", "value": "~3.24"},
      {"measurement": "pKd", "setting": "[3]; read-out: KD of reaction I", "value": 2.96},
      {"measurement": "koff (NO)", "setting": "wt Cb H-NOX [4]", "value": "3 × 10^−6c s^−1"},
      {"measurement": "kon (NO)", "setting": "wt Cb H-NOX [4]", "value": "~ 10^8c M^−1 s^−1"},
      {"measurement": "koff (NO)", "setting": "wt Tt H-NOX [5]", "value": 0.00056, "unit": "s⁻¹"}
    ]},
    {"molecule": "O=O", "note": "[O2, oxygen]", "values": [
      {"measurement": "pKd", "setting": "wt Cb H-NOX [1]; read-out: KD (O2)", "value": 4.28},
      {"measurement": "koff (O2)", "setting": "wt Tt H-NOX [2]", "value": 1.9, "unit": "s⁻¹"},
      {"measurement": "kon (O2)", "setting": "wt Tt H-NOX [2]", "value": "4.3e+07", "unit": "M⁻¹ s⁻¹"},
      {"measurement": "pKd", "setting": "wt Tt H-NOX [2]; read-out: KD (O2)", "value": 7.36},
      {"measurement": "koff (O2)", "setting": "wt Tt H-NOX [5]", "value": "1.2^f s^−1 and 1.2^e s^−1"},
      {"measurement": "kon (O2)", "setting": "wt Tt H-NOX [5]", "value": "2.5 × 10^7f M^−1 s^−1 and 1.36 × 10^7e M^−1 s^−1"},
      {"measurement": "pKd", "setting": "wt Tt H-NOX [5]; read-out: KD (O2)", "value": "7.32 and 7.05"}
    ]},
    {"molecule": "[C-]#[O+]", "note": "[CO, Carbon monoxide]", "values": [
      {"measurement": "koff (CO)", "setting": "wt Cb H-NOX [1]", "value": 1.0, "unit": "s⁻¹"},
      {"measurement": "kon (CO)", "setting": "wt Cb H-NOX [1]", "value": "1.5e+06", "unit": "M⁻¹ s⁻¹"},
      {"measurement": "pKd", "setting": "wt Cb H-NOX [1]; read-out: KD (CO)", "value": 6.17},
      {"measurement": "koff (CO)", "setting": "wt Tt H-NOX [2]", "value": 0.5, "unit": "s⁻¹"},
      {"measurement": "kon (CO)", "setting": "wt Tt H-NOX [2]", "value": "3.3e+06", "unit": "M⁻¹ s⁻¹"},
      {"measurement": "pKd", "setting": "wt Tt H-NOX [2]; read-out: KD (CO)", "value": 6.80},
      {"measurement": "kon (CO)", "setting": "wt Cb H-NOX [4]", "value": "1.5 × 10^6d M^−1 s^−1"},
      {"measurement": "koff (CO)", "setting": "wt Tt H-NOX [5]", "value": "3.56^g s^−1"},
      {"measurement": "kon (CO)", "setting": "wt Tt H-NOX [5]", "value": "4.1e+06 g/M/s and 2.18e+06 g/M/s"}
    ]}
  ]
}
